Test [1] is filed under the species Sus scrofa. Nature of the test: Competitive inhibition of pig PAP using para-nitrophenol as substrate at pH 4.9 preincubated for 10 mins by UV-visible spectrophotometry.
For test [2], the species on record is Sus scrofa. Nature of the test: Uncompetitive inhibition of pig PAP using para-nitrophenol as substrate at pH 4.9 preincubated for 10 mins by UV-visible spectrophotometry.

The source made the active and inactive calls. The rule behind the calls is not given here.

Consider `CC1(C)S[C@@H]2[C@H](NC(=O)Cc3ccccc3)C(=O)N2[C@H]1C(=O)O`, for which, in the test filed under Sus scrofa [1], the Kic entry was “inactive”. In addition, the Kiuc entry in the test filed under Sus scrofa [2] was “inactive”.
In the case of `CC1(C)S[C@@H]2[C@H](NC(=O)c3ccc(C(=O)c4ccccc4Cl)cc3)C(=O)N2[C@H]1C(=O)O`, in the test listed under Sus scrofa [1], the Kic was found to be 32 µM. The Kiuc result in the test listed under Sus scrofa [2] was “inactive”.
The corresponding values for `CC1(C)S[C@@H]2[C@H](NC(=O)c3cccc(C(=O)N4CCCCC4)c3)C(=O)N2[C@H]1C(=O)O` are 241 µM and 491 µM.
Taken in the same sequence, the figures for `CC(=O)Oc1ccc(C(=O)N[C@@H]2C(=O)N3[C@@H]2SC(C)(C)[C@@H]3C(=O)O)cc1` were 53 µM and “inactive”.
Taken in the same sequence, the figures for `CC1(C)S[C@@H]2[C@H](NC(=O)c3ccc(C(=O)c4cccc([N+](=O)[O-])c4)cc3)C(=O)N2[C@H]1C(=O)O` were 23 µM and “inactive”.
For `CC1(C)S[C@@H]2[C@H](NC(=O)c3ccc(C(=O)c4ccc([N+](=O)[O-])cc4)cc3)C(=O)N2[C@H]1C(=O)O`, in the test listed under Sus scrofa [1], the Kic is 17 µM. Besides, the Kiuc entry in the test filed under Sus scrofa [2] was “inactive”.
The corresponding values for `Cc1ccc(C(=O)c2cccc(C(=O)N[C@@H]3C(=O)N4[C@@H]3SC(C)(C)[C@@H]4C(=O)O)c2)cc1` are 60 µM and “inactive”.
The molecule `CC1(C)S[C@@H]2[C@H](NC(=O)c3ccc(C(=O)c4ccccc4)cc3)C(=O)N2[C@H]1C(=O)O` registered a Kic in the test listed under Sus scrofa [1] of 26 µM. Also, in the test filed under Sus scrofa [2], the Kiuc entry is “inactive”.
Turning to `CC1(C)S[C@@H]2[C@H](NC(=O)c3ccc(C(=O)c4ccc(Cl)cc4)cc3)C(=O)N2[C@H]1C(=O)O`, in the test filed under Sus scrofa [1], the Kic is 12 µM. Moreover, in the test listed under Sus scrofa [2], the Kiuc result was “inactive”.
